Results as given in PMC3787745, “Yeast Mnn9 is both a priming glycosyltransferase and an allosteric activator of mannan biosynthesis” (Open Biology, 2013).

Target: T1, ScVan1 with ScMnn9 (M-Pol I complex) (Saccharomyces cerevisiae, UniProt P23642)
T1 construct: gene VAN1; separately expressed glycosyltransferase domains (Van1 87-535, Mnn9 93-395) mixed; heterodimer; MBP-His6 tags cleaved by TEV; E. coli BL21(DE3) pLysS; with Mannan polymerase complexes subunit MNN9
Assay: FACE gel of ANTS-labelled products
Type: biochemical
Details: donor 1.2 mM; acceptor 10 mM α-1,6-mannobiose; 10 mM MnCl2; 20 mM HEPES pH 7.5; 30°C; both subunits wild-type

T1 sequence (P23642 87-535): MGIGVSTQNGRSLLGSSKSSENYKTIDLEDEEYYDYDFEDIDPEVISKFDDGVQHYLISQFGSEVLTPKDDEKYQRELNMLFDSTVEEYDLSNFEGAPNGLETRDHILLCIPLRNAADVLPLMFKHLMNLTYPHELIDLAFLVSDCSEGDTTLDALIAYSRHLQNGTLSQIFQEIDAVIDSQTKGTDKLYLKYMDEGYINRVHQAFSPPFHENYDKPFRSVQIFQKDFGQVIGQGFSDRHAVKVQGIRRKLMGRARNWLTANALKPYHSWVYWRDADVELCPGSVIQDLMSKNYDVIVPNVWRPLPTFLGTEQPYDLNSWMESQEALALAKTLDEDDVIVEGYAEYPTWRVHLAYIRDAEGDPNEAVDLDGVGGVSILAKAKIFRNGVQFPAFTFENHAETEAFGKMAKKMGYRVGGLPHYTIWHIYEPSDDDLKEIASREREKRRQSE
T1 sequence (P39107 93-395 partner): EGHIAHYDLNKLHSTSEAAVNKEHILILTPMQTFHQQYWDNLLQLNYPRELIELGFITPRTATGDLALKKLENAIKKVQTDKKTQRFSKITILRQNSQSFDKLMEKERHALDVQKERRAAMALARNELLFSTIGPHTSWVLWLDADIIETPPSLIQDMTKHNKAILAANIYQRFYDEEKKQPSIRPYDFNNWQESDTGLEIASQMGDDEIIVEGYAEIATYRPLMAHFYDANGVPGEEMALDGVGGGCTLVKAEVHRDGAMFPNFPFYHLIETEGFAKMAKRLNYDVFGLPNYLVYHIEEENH

Q: How did the “FACE gel of ANTS-labelled products” value turn out when `Nc1nc2c(ncn2[C@@H]2O[C@H](COP(=O)(O)OP(=O)(O)O[C@H]3O[C@H](CO)[C@@H](O)[C@H](O)[C@@H]3O)[C@@H](O)[C@H]2O)c(=O)[nH]1` [GDP-Man] was run?
A: Its value is “ScMnn9, ScVan1, GDP-Man, α-1,6-mannobiose and MnCl2 were incubated”.
